Experimental data published in ChEMBL document CHEMBL4706556, “Unraveling the anti-influenza effect of flavonoids: Experimental validation of luteolin and its congeners as potent influenza endonuclease inhibitors” (Eur J Med Chem, 2020).
pIC50, pKi: −log10 of the molar value. Structures can show the parent of a compound that is named as a salt. Active and inactive are the calls of the source. The calls are words filed in the database; no cut-off is given here.

Tests used:
[1] = Inhibition of biotinylated 5-(4-((Z)-3-Carboxy-3-hydroxyacryloyl)-4-(4-chlorobenzyl)piperidine-1-carbonyl)-2-((13,35-dioxo-39-((3aR,4R,6aS)-2-oxohexahydro-1H-thieno[3,4-d]imidazole-4-yl)-3,6,9,16,19,22,25,28,31-nonaoxa-12,34-diazanonatriacontyl)oxy)benzoic acid binding to Influenza A virus (A/California/07/2009(H1N1)) N-terminal GST-tagged polymerase acidic subunit N-terminal domain expressed in Escherichia coli BL21 (DE3) RIL cells measured after 120 mins by Alphascreen assay
[2] = test system: Influenza A virus (A/California/07/2009(H1N1)); assay: (§1) Inhibition of endonuclease activity of Influenza A virus (A/California/07/2009(H1N1)) N-terminal GST-tagged polymerase acidic subunit N-terminal domain expressed in Escherichia coli BL21 (DE3) RIL cells using single-stranded circular DNA M13mp18 as substrate measured after 4 hrs by GelRed-staining based agarose gel electrophoresis
[3] = test system: Influenza A virus (A/California/07/2009(H1N1)); assay: Inhibition of Influenza A virus (A/California/07/2009(H1N1)) neuraminidase at 400 uM by DNA-linked inhibitor antibody assay
[4] = Inhibition of Influenza A virus (A/California/07/2009(H1N1)) neuraminidase by DNA-linked inhibitor antibody assay
[5] = test system: Influenza A virus (A/California/07/2009(H1N1)); assay: as §1, with “cells at 0.01 to 100 uM” for “cells”; conditions: dose 0.01-100 µM

Structure (SMILES) | pIC50 [1] | other results
O=C(/C=C(O)/C=C/c1ccc(O)c(O)c1)/C=C/c1ccc(O)c(O)c1 | 5.77 | inhibition [2]: Active; inhibition [3]: inactive
O=C(/C=C(O)/C=C/c1ccc(O)cc1)/C=C/c1ccc(O)cc1 | < 4.30 | –
O=C1C=C(O)C(=O)c2c(O)c(O)cc(O)c21 | 6.37 | –
COc1cc(OC)c2c(=O)c(OC)c(-c3ccc(OC)c(OC)c3)oc2c1 | < 4.30 | –
COc1cc(OC)c2c(=O)cc(-c3cc(OC)c(OC)c(OC)c3)oc2c1 | 5.74 | –
O=c1cc(-c2ccc(O)c(O)c2)oc2ccccc12 | 5.62 | –
O=c1cc(-c2ccccc2O)oc2cc(O)cc(O)c12 | < 4.30 | –
O=c1cc(-c2ccc(O)c(O)c2)oc2cccc(O)c12 | 5.89 | –
O=c1cc(-c2cccc(O)c2)oc2cc(O)cc(O)c12 | < 4.30 | –
O=C(O)/C(O)=C/C(=O)C1(Cc2ccc(Cl)cc2)CCN(Cc2ccccc2)CC1 | 7.59 | pIC50 (Influenza A virus): 6.37
COc1cc([C@@H]2[C@H]3CO[C@@]4(C)C(=O)[C@@H]2C=C([C@H]2Oc5cc(O)cc(O)c5C(=O)[C@@H]2O)[C@@H]34)ccc1O | < 4.30 | –
O=c1cc(-c2ccc(O)c(O)c2)[nH]c2cc(O)cc(O)c12 | – | inhibition [2]: Active
O=C(c1ccc(O)c(O)c1)C1(O)Oc2cc(O)cc(O)c2C1=O (stereo not drawn) | 5.01 | –
O=c1c(O)c(-c2ccc(O)c(O)c2)[nH]c2cc(O)cc(O)c12 | 6.70 | –
CCCCC(=O)C1=C(O)C(=O)c2c(O)c(O)cc(O)c2C1=O | 6.54 | inhibition [2]: Active; inhibition [3]: inactive
O=C(NC(O)C(=O)O)c1ccccc1 (stereo not drawn) | < 4.30 | –
O=c1cc(-c2cccc(O)c2O)oc2cc(O)cc(O)c12 | 4.77 | –
O=c1cc(-c2cccc(O)c2)oc2cccc(O)c12 | < 4.30 | –
C[C@@H]1O[C@@H](Oc2c(-c3cc(O)c(O)c(O)c3)oc3cc(O)cc(O)c3c2=O)[C@H](O)[C@H](O)[C@H]1O | 5.74 | –
O=C1c2c(O)cc(O)cc2O[C@H](c2ccc(O)c(O)c2)[C@H]1O [(+)-TAXIFOLIN] | 4.30 | –

Structure (SMILES) | pIC50 [1] | other results
Oc1cc(O)c2c(c1)O[C@@H](c1ccc(O)c(O)c1)[C@H](O)C2 [(-)-CATECHIN] | < 4.30 | –
Oc1cc(O)c2c(c1)O[C@H](c1ccc(O)c(O)c1)[C@H](O)C2 [(-)-EPICATECHIN] | < 4.30 | –
O=C1c2c(O)cc(O)cc2O[C@H](c2cc(O)c(O)c(O)c2)[C@H]1O [AMPELOPSIN] | 4.66 | –
O=c1cc(-c2ccc(O)cc2)oc2cc(O)cc(O)c12 [APIGENIN] | < 4.30 | –
O=C1c2c(O)c(=O)ccn2N([C@@H]2c3ccccc3SCc3c2ccc(F)c3F)[C@@H]2COCCN12 [BALOXAVIR] | 7.62 | –
O=C(/C=C/c1ccc(O)c(O)c1)O[C@@H]1C[C@](O)(C(=O)O)C[C@@H](O)[C@H]1O [CHLOROGENIC ACID] | < 4.30 | inhibition [3]: inactive
Oc1cc(O)c2c(c1)O[C@H](c1ccc(O)c(O)c1)[C@@H](O)C2 [CIANIDANOL] | 4.38 | –
COc1cc(/C=C/C(=O)CC(=O)/C=C/c2ccc(O)c(OC)c2)ccc1O [CURCUMIN] | 4.60 | –
COc1ccc(/C=C/C(=O)/C=C(O)/C=C/c2ccc(OC)c(OC)c2)cc1OC [DIMETHYLCURCUMIN] | < 4.30 | –
COc1ccc(-c2cc(=O)c3c(O)cc(O)cc3o2)cc1O [DIOSMETIN] | < 4.30 | –
Oc1cc(O)c2c(c1)O[C@H](c1cc(O)c(O)c(O)c1)[C@H](O)C2 [EPIGALLOCATECHIN] | 5.48 | –
O=C(O[C@@H]1Cc2c(O)cc(O)cc2O[C@@H]1c1cc(O)c(O)c(O)c1)c1cc(O)c(O)c(O)c1 [EPIGALOCATECHIN GALLATE] | 6.06 | inhibition [2]: Active; inhibition [3]: inactive
O=C1C[C@@H](c2ccc(O)c(O)c2)Oc2cc(O)cc(O)c21 [ERIODICTYOL] | 4.74 | –
COc1c(O)cc2oc(-c3ccc(O)c(O)c3)cc(=O)c2c1O [EUPAFOLIN] | 6.03 | –
Oc1ccc(C2CNCCc3c2cc(O)c(O)c3Cl)cc1 (stereo not drawn) [FENOLDOPAM MESYLATE] | 4.51 | –
O=c1c(O)c(-c2ccc(O)c(O)c2)oc2cc(O)ccc12 [FISETIN] | 6.02 | –
O=c1cc(-c2ccc(O)c(O)c2)oc2cc(O[C@@H]3O[C@H](CO)[C@@H](O)[C@H](O)[C@H]3O)cc(O)c12 [GALUTEOLIN] | 4.49 | –
O=c1c(-c2ccc(O)cc2)coc2cc(O)cc(O)c12 [GENISTEIN] | < 4.30 | –
Cc1cc2c(C(C)C)c(O)c(O)c(C=O)c2c(O)c1-c1c(C)cc2c(C(C)C)c(O)c(O)c(C=O)c2c1O [GOSSYPOL] | 4.89 | –
O=c1c(O[C@@H]2OC[C@H](O)[C@H](O)[C@H]2O)c(-c2ccc(O)c(O)c2)oc2cc(O)cc(O)c12 [GUAJAVERIN] | 4.77 | –

Structure (SMILES) | pIC50 [1] | other results
O=c1cc(-c2ccc(O)c(O)c2)oc2cc(O)c([C@@H]3O[C@H](CO)[C@@H](O)[C@H](O)[C@H]3O)c(O)c12 [ISOORIENTIN] | < 4.30 | –
O=c1c(O)c(-c2ccc(O)cc2)oc2cc(O)cc(O)c12 [KAEMPFEROL] | 4.80 | –
CC(C)=CCC1=C(O)C(=O)c2ccccc2C1=O [LAPACHOL] | 4.72 | –
O=c1cc(-c2ccc(O)c(O)c2)oc2cc(O)cc(O)c12 [LUTEOLIN] | 7.14 | inhibition [2]: Active; inhibition [3]: inactive
O=c1c(O)c(-c2ccc(O)cc2O)oc2cc(O)cc(O)c12 [MORIN] | 5.05 | –
O=c1c(O)c(-c2cc(O)c(O)c(O)c2)oc2cc(O)cc(O)c12 [MYRICETIN] | 6.12 | inhibition [2]: Active; inhibition [3]: inactive
CCn1cc(C(=O)O)c(=O)c2ccc(C)nc21 [NALIDIXIC ACID] | < 4.30 | –
O=C1N[C@@H]2C(=C[C@H](O)[C@@H](O)[C@H]2O)c2cc3c(c(O)c21)OCO3 [NARCICLASINE] | < 4.30 | –
O=c1cc(-c2ccc(O)c(O)c2)oc2c([C@@H]3O[C@H](CO)[C@@H](O)[C@H](O)[C@H]3O)c(O)cc(O)c12 [ORIENTIN] | 7.37 | –
CCC(CC)O[C@@H]1C=C(C(=O)O)C[C@H](N)[C@H]1NC(C)=O [OSELTAMIVIR CARBOXYLATE] | – | pKi [4]: 7.41
O=c1c(O)cccc2cc(O)c(O)c(O)c12 [PURPUROGALLIN] | 5.82 | –
O=c1c(O)c(-c2ccc(O)c(O)c2)oc2cc(O)cc(O)c12 [QUERCETIN] | 6.17 | inhibition [5]: Active; inhibition [3]: inactive
COc1cc(O)c2c(=O)c(OC)c(-c3ccc(OC)c(OC)c3)oc2c1 [RETUSIN] | < 4.30 | –
COc1cc([C@@H]2Oc3c(O)cc([C@H]4Oc5cc(O)cc(O)c5C(=O)[C@@H]4O)cc3[C@H]2CO)ccc1O [SILICRISTIN A] | < 4.30 | –
COc1cc([C@H]2Oc3cc([C@H]4Oc5cc(O)cc(O)c5C(=O)[C@@H]4O)ccc3O[C@@H]2CO)ccc1O [SILYBIN A] | < 4.30 | –
O=c1oc(-c2ccc(O)c(O)c2)cc2cccc(O)c12 [THUNBERGINOL A] | 5.85 | –
O=c1cc(-c2cc(O)c(O)c(O)c2)oc2cc(O)cc(O)c12 [TRICETIN] | 6.80 | –
O=c1cc(-c2ccc(O)cc2)oc2c([C@@H]3O[C@H](CO)[C@@H](O)[C@H](O)[C@H]3O)c(O)cc(O)c12 [VITEXIN] | 5.72 | inhibition [3]: inactive
